# Experiments:
# [1] = test system: adenomyosis associated infertility; test: Pregnancy outcome of IVF after the treatment regimen; format: in vivo, women
# Protocol: Sodium valproate 500 mg prolonged-release tablets were used. […] There were tested 37 women with adenomyosis and a history of infertility and/or abortions. […] One month after End of Treatment, a new IVF cycle is ready to be started, and pregnancies are followed up to full term birth. […] Pregnancy rate was measured and is described below in Table 6: […]
# adenomyosis lesions = test: Clinical treatment of women with adenomyosis: lesion assessment by 2D/3D ultrasound, MRI and colour Doppler; format: in vivo
# Protocol: A 100 mg/ml solution of sodium valproate for injection or infusion was prepared.
# This solution is drawn in 5 ml Luer lock syringe and administrated in the lesion(s) through special needle. We have used—OPU needle 18G, with echo tip and length at least 15 cm. The solution was administered in the ultrasound-guided manner in all visible lesions. The access was through the vagina.
# (§1) Intralesional application must start with the lesions located closest to the cavum uteri, in the so-called junctional zone, because these have the strongest influence on fertility. The procedure is performed under short-term intravenous anesthesia to ensure patient comfort and immobility during application; patients report no pain after anesthesia wear off.
# The first oral dose must be taken between 9 h and 16 h after the end of intralesion application in order to achieve a steady state in patient plasma.
# Sodium valproate 500 mg prolonged-release tablets were used.
# To eliminate operator bias, all TVUS scans of the same patient at baseline and after start of treatment were performed by the same specialist on the same ultrasound machine.
# There were tested 37 women with adenomyosis and a history of infertility and/or abortions.
# [2] = Safety and tolerability of the treatment regimen (safety lab blood tests, adverse events); format: in vivo, women
# Protocol: as §1
# The safety lab panel included liver function tests (AST, ALT, LDH), as well as complete blood count.
# [3] = after the first two months of oral VPA following intralesional VPA administration
smiles,measurement,setting,value
"CCCC(CCC)C(=O)O [VPA, valproic acid]","Observed Prop. (Binomial Test, Pregnancy CODE 1.00)","[1]; Group 2, N 13 of 37, Test Prop. .8, Exact Sig. (1-tailed) .023",.4
same,"pregnancy terminations, or uterine obstetric complications during C-Section",[1]; in vivo,"No pregnancy terminations, or uterine obstetric complications during C-Section"
same,pregnancy rate,"[1]; new IVF cycle one month after End of Treatment, results up to date",85%
same,healthy full-term babies,[1]; results up to date,10
same,response of lesions to treatment,adenomyosis lesions; 37 women with adenomyosis and a history of infertility and/or abortions,Some of the lesions disappeared completely and some of them were significantly reduced in size
same,central vascularity of lesions (Colour Doppler),adenomyosis lesions; [3],absent
same,reduction in size of lesion dimensions (ultrasound),adenomyosis lesions; [3],up to 2 fold
same,progression of adenomyosis,adenomyosis lesions; monthly follow-up for three months after end of treatment,no progression of adenomyosis was observed
same,patients who reported dizziness and stopped oral VPA intake,[2]; 1000 mg VPA daily oral,2
same,pain after intralesional application,[2]; after anesthesia wear off,no pain
same,"safety lab results (AST, ALT, LDH, complete blood count)",[2]; before start and every 30 days till end of treatment,in normal range

# Source: patent US12642781B2, “Adenomyosis associated infertility and hdac inhibitors” (NADEZHDA REPRODUCTIVE SCIENCE OOD, priority 2020, dated 2026)
